According to the supplement of paper PMC10307832:

Experiments:
Assay in all cases: relative viability (nuclei count vs DMSO), 5 days (fraction); higher = more cells survive
Trametinib + Pictilisib = compound: CC(=O)Nc1cccc(-n2c(=O)n(C3CC3)c(=O)c3c(Nc4ccc(I)cc4F)n(C)c(=O)c(C)c32)c1 [Trametinib] + CS(=O)(=O)N1CCN(Cc2cc3nc(-c4cccc5[nH]ncc45)nc(N4CCOCC4)c3s2)CC1 [Pictilisib] (partner 1 µM)
Summary of the method: (§1)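 Lung cancer cell lines, seeded in 1536-well plates, were treated the following day by pin tool with a single drug or with five library-drug doses (not always all listed) in √10 steps on top of a fixed anchor-drug dose. Cells were fixed and nuclei stained in one step after 5 days, and nuclei were counted. Relative viability is the nuclei count for treated wells divided by that for vehicle wells, reported as medians of duplicate plates.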

Trametinib + Pemetrexed = compound: CC(=O)Nc1cccc(-n2c(=O)n(C3CC3)c(=O)c3c(Nc4ccc(I)cc4F)n(C)c(=O)c(C)c32)c1 [Trametinib] + Nc1nc2[nH]cc(CCc3ccc(C(=O)N[C@@H](CCC(=O)O)C(=O)O)cc3)c2c(=O)[nH]1 [Pemetrexed] (partner 0.2 µM)
Summary of the method: as §1

[1] = compound: CN1C=C(C2=CC=CC=C21)/C=C\3/C4=C(C=CC=N4)NC3=O + COc1cccc2cc(-c3nc([C@H]4CC[C@H](C(=O)O)CC4)n4ncnc(N)c34)[nH]c12 [OSI-027] (partner 0.5 µM)
Summary of the method: as §1

[2] = compound: CN1C=C(C2=CC=CC=C21)/C=C\3/C4=C(C=CC=N4)NC3=O + N=C(N)NC(=N)NCCc1ccccc1 [Phenformin] (partner 250 µM)
Summary of the method: as §1

Cell Line | relative viability (Trametinib + Pictilisib; first compound 0.0025 µM) | relative viability (Trametinib + Pictilisib; first compound 0.007906 µM) | relative viability (Trametinib + Pictilisib; first compound 0.025 µM) | relative viability (Trametinib + Pictilisib; first compound 0.07906 µM) | relative viability (Trametinib + Pictilisib; first compound 0.25 µM) | relative viability (Trametinib + Pemetrexed; first compound 0.0025 µM) | relative viability (Trametinib + Pemetrexed; first compound 0.007906 µM) | relative viability (Trametinib + Pemetrexed; first compound 0.025 µM) | relative viability (Trametinib + Pemetrexed; first compound 0.07906 µM) | relative viability (Trametinib + Pemetrexed; first compound 0.25 µM) | relative viability ([1]; first compound 0.02 µM) | relative viability ([1]; first compound 0.06325 µM) | relative viability ([1]; first compound 0.2 µM) | relative viability ([1]; first compound 0.6325 µM) | relative viability ([1]; first compound 2 µM) | relative viability ([2]; first compound 0.02 µM) | relative viability ([2]; first compound 0.06325 µM) | relative viability ([2]; first compound 0.2 µM) | relative viability ([2]; first compound 0.6325 µM) | relative viability ([2]; first compound 2 µM)
NCI-H1651 | 0.5 | 0.488 | 0.406 | 0.49 | 0.389 | 0.554 | 0.618 | 0.426 | 0.47 | 0.278 | 0.615 | 0.724 | 0.65 | 0.66 | 0.733 | 0.377 | 0.344 | 0.305 | 0.327 | 0.397
EBC-1 | 0.244 | 0.204 | 0.134 | 0.137 | 0.168 | – | – | – | – | – | – | – | – | – | – | – | – | – | – | –
COR-L 105 | 0.311 | 0.343 | 0.303 | 0.31 | 0.315 | 0.984 | 0.825 | 0.69 | 0.488 | 0.42 | 1.01 | 0.897 | 0.591 | 0.746 | 0.724 | 0.518 | 0.444 | 0.496 | 0.489 | 0.486
RERF-LC-KJ | 0.417 | 0.449 | 0.503 | 0.494 | 0.458 | 0.481 | 0.474 | 0.435 | 0.494 | 0.422 | 0.551 | 0.574 | 0.493 | 0.554 | 0.545 | 0.434 | 0.415 | 0.444 | 0.474 | 0.482
NCI-H1793 | 0.4 | 0.314 | 0.169 | 0.307 | 0.232 | 0.617 | 0.481 | 0.315 | 0.365 | 0.338 | 0.283 | 0.252 | 0.248 | 0.244 | 0.197 | 0.393 | 0.41 | 0.314 | 0.403 | 0.368
CAL-12T | 0.348 | 0.29 | 0.271 | 0.279 | 0.318 | 1.21 | 1.15 | 0.753 | 0.483 | 0.589 | 0.628 | 0.47 | 0.525 | 0.645 | 0.53 | 0.507 | 0.537 | 0.613 | 0.612 | 0.601
NCI-H1993 | 0.864 | 0.913 | 0.792 | 0.806 | 0.897 | 0.511 | 0.566 | 0.543 | 0.543 | 0.453 | 0.454 | 0.515 | 0.587 | 0.571 | 0.577 | 0.544 | 0.432 | 0.431 | 0.55 | 0.509
LXF-289 | 0.674 | 0.618 | 0.424 | 0.388 | 0.264 | 0.844 | 0.832 | 0.688 | 0.672 | 0.772 | 0.857 | 0.763 | 0.715 | 0.731 | 0.745 | 0.478 | 0.515 | 0.467 | 0.551 | 0.522
NCI-H1792 | 0.227 | 0.183 | 0.182 | 0.152 | 0.104 | 0.751 | 0.645 | 0.363 | 0.328 | 0.154 | 0.72 | 0.71 | 0.768 | – | 0.464 | 0.442 | 0.245 | – | 0.297 | 0.237
LU99A | 0.279 | 0.318 | 0.217 | 0.197 | 0.197 | 0.206 | 0.208 | 0.203 | 0.193 | 0.206 | 0.298 | 0.303 | 0.282 | 0.255 | 0.299 | 0.874 | 0.846 | 0.695 | 0.602 | 0.8
SW 1573 | 0.357 | 0.34 | 0.339 | 0.308 | 0.214 | 0.732 | 0.76 | 0.538 | 0.555 | 0.331 | 0.737 | 0.557 | 0.559 | 0.54 | 0.551 | 0.394 | 0.344 | 0.436 | 0.352 | 0.441
COR-L23 | 0.72 | 0.756 | 0.555 | 0.439 | 0.308 | 0.192 | 0.211 | 0.23 | 0.214 | 0.209 | 0.713 | 0.716 | 0.829 | 0.723 | 0.843 | 0.429 | 0.396 | 0.394 | 0.48 | 0.441
A549 | 0.375 | 0.237 | 0.179 | 0.121 | 0.072 | – | – | – | – | – | – | – | – | – | – | 0.16 | 0.101 | 0.181 | 0.114 | 0.183
NCI-H2342 | – | – | – | – | – | 0.688 | 0.727 | 0.459 | 0.689 | 0.685 | 0.617 | 0.616 | 0.596 | 0.535 | 0.65 | 0.623 | 0.641 | 0.486 | 0.57 | 0.505
NCI-H1648 | – | – | – | – | – | 0.676 | 0.69 | 0.883 | 0.752 | 0.559 | – | 0.239 | 0.259 | 0.258 | 0.281 | – | – | – | – | –
ABC-1 | 0.552 | 0.56 | 0.363 | 0.458 | 0.28 | – | – | – | – | – | 0.683 | 0.461 | 0.273 | 0.4 | 0.533 | 0.226 | 0.242 | 0.23 | 0.244 | 0.21
NCI-H727 | 0.333 | 0.207 | 0.176 | 0.149 | 0.25 | – | – | – | – | – | 0.57 | 0.553 | 0.408 | 0.657 | 0.58 | 0.414 | 0.448 | 0.442 | 0.586 | 0.528
NCI-H522 | – | – | – | – | – | 1.04 | 1.07 | 0.75 | 0.742 | 0.752 | 0.648 | 0.743 | 0.761 | 0.75 | 0.835 | 0.579 | 0.672 | 0.703 | 0.58 | 0.644
NCI-H1623 | – | – | – | – | – | – | – | – | – | – | 0.371 | 0.404 | 0.359 | 0.38 | 0.379 | 0.631 | 0.537 | 0.546 | 0.513 | 0.564
NCI-H1299 | 0.475 | 0.47 | 0.32 | 0.0746 | 0.157 | – | – | – | – | – | – | – | – | – | – | – | – | – | – | –
Calu-6 | 0.739 | 0.45 | 0.193 | 0.136 | 0.121 | – | – | – | – | – | – | – | – | – | – | – | – | – | – | –
